One assay concerns PC-3. In words: Cell cycle arrest in human PC3 cells assessed as accumulation at G2/M phase up to 2 uM after 24 hrs by propidium iodide staining based flow cytometry. It counts as functional. (In general: A flow cytometer gives signals particle by particle.)
The target in the next assay is Histone deacetylase 1 (Homo sapiens, UniProt Q13547). Conditions: 0.25 to 2 uM.

The record followed here is ChEMBL document CHEMBL4020839, “Class I HDAC Inhibitors Display Different Antitumor Mechanism in Leukemia and Prostatic Cancer Cells Depending on Their p53 Status” (J Med Chem, 2018).

SMILES strings stand for the structures. The source made the active and inactive calls. No cut-off for these calls is given here.

Histone deacetylase 1, sequence (Q13547 whole entry): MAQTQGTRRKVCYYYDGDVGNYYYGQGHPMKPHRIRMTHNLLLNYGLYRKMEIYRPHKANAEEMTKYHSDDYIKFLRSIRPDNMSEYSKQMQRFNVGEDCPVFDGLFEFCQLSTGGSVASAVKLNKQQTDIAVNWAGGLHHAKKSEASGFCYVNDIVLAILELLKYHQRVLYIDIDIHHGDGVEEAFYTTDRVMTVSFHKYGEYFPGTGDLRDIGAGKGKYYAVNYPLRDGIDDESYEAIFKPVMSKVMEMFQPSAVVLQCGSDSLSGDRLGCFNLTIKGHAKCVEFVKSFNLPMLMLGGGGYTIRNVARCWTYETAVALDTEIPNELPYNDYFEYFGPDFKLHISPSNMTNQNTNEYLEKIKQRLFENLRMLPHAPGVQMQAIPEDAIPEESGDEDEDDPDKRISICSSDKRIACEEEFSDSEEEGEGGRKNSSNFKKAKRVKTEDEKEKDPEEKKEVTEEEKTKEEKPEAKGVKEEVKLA
Description for Histone deacetylase 1: Inhibition of HDAC1 in human MV4-11 cells assessed as increase in acetylated histone H4 level at 0.25 to 2 uM after 24 hrs by Western blot analysis

As to `CCCNNC(=O)c1ccc(NC(=O)[C@H](Cc2c[nH]c3ccccc23)NC(=O)c2ccc(OC)cc2)cc1`, in the assay with PC-3, the result was Active. On Histone deacetylase 1, the inhibition result is “Active”.
